Test results taken from US9233067B2, “Silk particles for controlled and sustained delivery of compounds” (Amsilk GmbH, priority 2009, dated 2016).
“Also recorded” adds a separate entry of the source. Where a name gives a salt, the structure may show the parent alone.

Columns and labels:
[1] = Properties of small molecular weight model drugs (Table 1); assay type: physicochemical; details: for Predominant charge at pH7: pH 7, aqueous media
Method: All drugs were dissolved in water at a concentration of 0.21 μmol/ml. Drug substances and their featured properties are depicted in Table 1. The main selection criteria were solubility in aqueous media (expressed by the octanol/water partition coefficient (log P)), the acidic dissociation constant (pKa for protonated bases (BH+) or for acids (HA)) and the resulting net-charge in aqueous media (predominant or permanent charge).

[2] = Calculated apparent distribution coefficient (log D); details: pH 7; calculated from log P and pKa
Excerpt: Further, the distribution between a hydrophobic and a hydrophilic phase of two different species of a specific drug, i.e. the native and the protonated form, can be described by its apparent distribution coefficient (log D), which can be calculated with equations (3) and (4) respectively. for acids: log D=log P−log(1+10^pH-pKa) (3) for bases: log D=log P−log(1+10^pKa-pH) (4)

[3] = cited from earlier work; for log P: octanol/water, individual unprotonated forms; for Dissociation constant of BH^+(pKa): protonated base
[4] = In vitro release from drug loaded eADF4(C16) particles; assay type: physicochemical; details: power law fit
Method: Drug loaded eADF4(C16) particles were washed with distilled water and suspended in 1 ml PBS (pH 7.4) before incubation at 37° C. with constant shaking. Each vial contained 2 mg of drug loaded particles containing […] spider silk protein. The solvent was periodically removed from each sample and replaced with fresh PBS (pH 7.4). The drug content in the medium was then analyzed using UV-Vis-spectrometry. The percentage of cumulative model drug release (% w/w) was investigated as a function of incubation time. Each experiment was performed in triplicate. To study the effect of different pH values on the release behaviour of drug loaded eADF4(C16) particles, 1 mg drug loaded silk particles were incubated in 1.0 ml PBS at 5 different pH values (pH 2, 4, 6, 7.4 and 8.8) for 5 days. The solvent was withdrawn daily and the particles were redispersed in fresh media. Supernatants of drawn samples were analyzed for drug content determination with UV-Vis-spectrometry.
[formula] where Mt/M∞ is the fractional amount of the drug released at time t, k is a characteristic constant of the system, and exponent n is related to the geometrical shape of the formulation and is indicative of the mechanism of drug release. The semi-empirical power law can be seen as a generalization of two independent mechanisms of drug transport, Fickian diffusion and Case II transport, reflecting the influence of polymer relaxation on molecules' movement in the matrix. For spherical systems the limiting value of n, when pure Fickian diffusion or pure Case II transport is operating, were determined to be equal to 0.43 and 0.85, respectively. When n is between 0.43 and 0.85, a superposition of both transport processes occurs which is known as anomalous transport. In order to obtain a linear fit for the drug release data, equation (5) was modified leading to equation (6),
[formula] where n can be calculated from the slope of the log-log plot of release Mt/M∞ versus time t by linear fitting (FIG. 4d). Therefrom, three time intervals with different dominating release mechanisms could be identified excluding the initial burst region (<24 h). To distinguish between different time intervals, the criterion that the coefficient r2 had to be above 0.99 for the individual linear fits was employed. For validation of the determined release parameters, the experimental release data were compared with theoretical data obtained by the semi-empirical power law employing the determined values for k and n. A very good agreement from post-initial burst stage (>24 hours) up to 100% release was obtained (FIG. 4 a). Since only release data after 24 hours were considered for calculation of release parameters (k and n), the initial burst is underestimated by theoretical data (FIG. 4 b).

Zeta potential analysis = assay type: physicochemical; details: lysozyme loading up to 30%; pH 7.0/30 mM
Method: In order to elucidate and characterize the loading mechanism of eADF4(C16) particles with model drugs, zeta potential measurements were conducted as a function of amount of model drug added. The zeta potential was determined using a Nanoseries Malvern Zetasizer (Malvern, Worcestershire, UK). Automatic titration was conducted with a Malvern Multipurpose Titrator MPT-2. Experiments were performed in distilled water (pH 7) at 25° C. Each measurement was performed in triplicate.

[5] = Particle size of lysozyme loaded C16 spider silk particles (dynamic light scattering); assay type: physicochemical; details: particles loaded with approximately 10% [w/w] lysozyme
Method: The loading procedure as applied in example 6 was modulated and implemented as follows: A stock dispersion of spider silk particles was centrifuged and redispersed in the desired buffer media before loading. A second stock solution comprising lysozyme was prepared by dissolving lyophilized lysozyme in an identical buffer solution. […] After 30 minutes of incubation at room temperature under gentle agitation, 20 μl of the resulting particle suspension were used for dynamic light scattering measurements. Simultaneously, samples were centrifuged and the supernatant was analyzed for residual protein content using the Micro BCA Protein Assay Kit (Thermo Scientific). Encapsulation efficiencies and loading were determined according to example 6 by using equation (1) and (2), respectively.

[6] = pH of 7.0; cited from earlier work

## CN[C@@H](C)[C@H](O)c1ccccc1 [Ephedrine*HCl, Ephedrine]
[1]
  Permanently charged: no
  Predominant charge at pH7: positive
[2]
  log D: −1.321
[3]
  log P: 1.30

## CCOc1ccc2nc3cc(N)ccc3c(N)c2c1 [Ethacridine lactate]
[1]
  Permanently charged: no
  Predominant charge at pH7: positive
[2]
  log D: 2.899
[4]; time 0-13 d
  k (characteristic constant): 1.25
  n (release exponent): 00.6754
[4]; time 0-13 d, listed as ethacridine lactate
  n (release exponent): 0.6754
[4]; time 14-20 d
  k (characteristic constant): 3.18
  n (release exponent): 0.5083
[4]; time 14-20 d, listed as ethacridine lactate
  n (release exponent): 0.51
[4]; time >20 d
  k (characteristic constant): 14.4
  n (release exponent): 0.2641
[3]
  log P: 2.50
  Dissociation constant of BH^+(pKa): 11.00

## COc1ccc(Cc2nccc3cc(OC)c(OC)cc23)cc1OC [Papaverine*HCl, Papaverine]
[1]
  Permanently charged: no
  Predominant charge at pH7: positive
[2]
  log D: 2.395
[3]
  log P: 3.50
  Dissociation constant of BH^+(pKa): 8.07

## O=S1(=O)OC(c2ccc(O)cc2)(c2ccc(O)cc2)c2ccccc21 [Phenol red]
[3]
  log P: 3.00

## CCN(CC)CCOC(=O)c1ccc(N)cc1 [Procaine*HCl, Procaine]
[1]
  Permanently charged: no
  Predominant charge at pH7: positive
[2]
  log D: 0.396
[3]
  log P: 2.40
  Dissociation constant of BH^+(pKa): 8.05

## CC(C)NCC(O)COc1cccc2ccccc12 (stereo not drawn) [Propranolol*HCl, Propranolol]
[1]
  Permanently charged: no
  Predominant charge at pH7: positive

## CCCCNc1ccc(C(=O)OCCN(C)C)cc1 [Tetracaine*HCl, Tetracaine]
[1]
  Permanently charged: no
  Predominant charge at pH7: positive
[2]
  log D: 2.773
[3]
  log P: 4.00

## Lysozyme: protein compound with an isoelectric point of 11.35 and a molecular weight of 14.3 kDa
Zeta potential analysis
  change in the zeta-potential of particles: did not show a significant change
[5]
  particle size compared to unloaded spider silk particles: no increase in size; also recorded: did not differ
[6]
  net charge: positive

## Methyl violet
[1]
  Permanently charged: yes
  Predominant charge at pH7: positive
[4]; time 0-13 d
  k (characteristic constant): 1.17
  n (release exponent): 0.692
[4]; time 14-20 d
  k (characteristic constant): 1.92
  n (release exponent): 0.6079
[4]; time 14-20 d, listed as methyl violet
  n (release exponent): 0.61
[4]; time >20 d
  k (characteristic constant): 9.20
  n (release exponent): 0.3537
[3]
  log P: 3.20

## Nerve growth factor: protein with an isoelectric point of 9.5 and a molecular weight of 13 kDa
[6]
  net charge: positively charged
